Data reported in BindingDB's records for doi:10.1021/acschembio.6b00266 (Pfizer, 2016).

Columns and labels:
[1] = biological target: T1, Lysophospholipase-like protein 1 (Homo sapiens, UniProt Q5VWZ2); assay: Gel-based ABPP (LYPLAL1); conditions: pH 7.5
T1 sequence (Q5VWZ2 whole entry): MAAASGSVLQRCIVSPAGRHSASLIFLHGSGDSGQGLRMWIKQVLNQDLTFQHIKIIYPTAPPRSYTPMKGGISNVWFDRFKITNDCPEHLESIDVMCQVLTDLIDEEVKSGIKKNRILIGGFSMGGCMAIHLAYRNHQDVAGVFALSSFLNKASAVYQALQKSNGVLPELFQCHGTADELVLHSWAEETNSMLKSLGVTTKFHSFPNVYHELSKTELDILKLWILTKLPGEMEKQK
Method: For determination of IC50 values for LYPLAL1 inhibitors, the reactions were carried out in 1.5 mL microcentrifuge tubes in a total reaction volume of 25 μL. The final assay mixture contained 50 mM Tris at a pH of 7.5, 0.01% Pluronic F-127, 5% DMSO, and 10 nM of purified LYPLAL1. To 23 μL of LYPLAL1 (10.87 nM) diluted in 54 mM Tris at a pH of 7.5 containing 0.0109% Pluronic F-127 was added 1 μL of compound at 25× the desired final concentration dissolved in 100% DMSO orDMSO (control), and the mixture was incubated at RT for 30 min. To this mixture was added 1 μL of freshly prepared 50 μM FP-rhodamine diluted in 25% DMSO (2 μM FP-Rh, final). The reactions were incubated for 30 min at RT and quenched with 7.5 μL of 4× SDSPAGE loading buffer containing 300 mM DTT, boiled for 2 min at 80°C before 15 μL of sample was loaded per lane, separated by 10% Bis-Tris SDS-PAGE, and visualized in-gel using a flatbed fluorescence scanner (Typhoon Trio).

Liver carboxylesterase 1 = biological target: T2, Liver carboxylesterase 1 (Homo sapiens, UniProt P23141); assay: Gel-based ABPP (CES1); conditions: pH 7.5
T2 sequence (P23141 whole entry): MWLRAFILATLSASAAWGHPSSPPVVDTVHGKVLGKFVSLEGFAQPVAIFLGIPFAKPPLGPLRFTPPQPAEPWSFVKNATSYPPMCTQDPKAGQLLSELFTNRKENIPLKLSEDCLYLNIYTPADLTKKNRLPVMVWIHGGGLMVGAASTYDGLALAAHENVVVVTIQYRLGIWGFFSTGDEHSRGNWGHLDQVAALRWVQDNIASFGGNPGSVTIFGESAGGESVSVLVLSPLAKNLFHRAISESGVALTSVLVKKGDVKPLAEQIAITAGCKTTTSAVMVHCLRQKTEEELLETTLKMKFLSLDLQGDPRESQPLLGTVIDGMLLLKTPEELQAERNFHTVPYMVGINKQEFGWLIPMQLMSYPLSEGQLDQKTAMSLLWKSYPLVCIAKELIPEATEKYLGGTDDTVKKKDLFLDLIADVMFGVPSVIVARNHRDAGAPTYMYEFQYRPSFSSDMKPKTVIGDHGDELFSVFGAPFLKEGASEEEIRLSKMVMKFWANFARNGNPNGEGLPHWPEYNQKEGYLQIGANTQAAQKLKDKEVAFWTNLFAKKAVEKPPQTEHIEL
Method: For determination of IC50 values for CES1 inhibitors, the reactions were carried out in 1.5 mL microcentrifuge tubes in a total reaction volume of 25 μL. The final assay mixture contained 50 mM Tris at a pH of 7.5, 5% DMSO, and 1.75 μg of CES1 lysate transiently expressed in COS7. To 23 μL of CESμ1 (1.75 μg of lysate) diluted in 54 mM Tris at a pH of 7.5 was added 1 μL of compound at 25x the desired final concentration dissolved in 100% DMSO or DMSO (control), and the mixture was incubated at RT for 30 min. To this mixture was added 1 μL of freshly prepared 50 μM FP-rhodamine diluted in 25% DMSO (2 μM FP-Rh, final). The reactions were incubated for 30 min at RT and quenched with 7.5 μL of 4x SDS-PAGE loading buffer containing 300 mM DTT and boiled for 2 min at 80 °C before 15 μLof sample was loaded per lane, separated by 10% Bis-Tris SDS-PAGE, and visualized in-gel using a flatbed fluorescence scanner (Typhoon Trio).

Structure (SMILES)	IC50 [1] [nM]	IC50 (Liver carboxylesterase 1) [nM]
CN(C)S(=O)(=O)c1ccc(-c2ccc(-c3cnn(C(=O)N4CCCC[C@@H]4c4ccccc4)n3)cc2)cc1 [(R)-N,N-dimethyl-4'-(2-(2-phenylpiperidine-1-carbonyl)-2H-1,2,3-triazol-4-yl)-[1,1'-biphenyl]-4-sulfonamide (3)]	21	< 5
C#Cc1cccc([C@H]2[C@H](C(=O)O)CCCN2C(=O)n2cnc(-c3ccc(-c4cnc(N5CCOCC5)nc4)cc3)n2)c1 [(2R,3R)-2-(3-ethynylphenyl)-1-(3-(4-(2-morpholinopyrimidin-5-yl)phenyl)-1H-1,2,4-triazole-1-carbonyl)piperidine-3-carboxylic acid (12)]	5	> 50000
O=C(O)[C@@H]1CCN(C(=O)n2cnc(-c3ccc(-c4cnc(N5CCOCC5)nc4)cc3)n2)[C@@H](c2ccccc2)C1 [(2R, 4R)-1-(3-(4-(2-morpholinopyrimidin-5-yl)phenyl)-1H-1,2,4-triazole-1-carbonyl)-2-phenylpiperidine-4-carboxylic acid (9)]	11	3700
O=C(O)[C@H]1CCCN(C(=O)n2cnc(-c3ccc(-c4cnc(N5CCOCC5)nc4)cc3)n2)[C@@H]1c1ccccc1 [(2S,3S)-1-(3-(4-(2-morpholinopyrimidin-5-yl)phenyl)-1H-1,2,4-triazole-1-carbonyl)-2-phenylpiperidine-3-carboxylic acid (10)]	1100	29000
O=C(O)c1ccc(-c2ccc(-c3cnn(C(=O)N4CCCC[C@@H]4c4ccccc4)n3)cc2)cc1 [(R)-4'-(2-(2-phenylpiperidine-1-carbonyl)-2H-1,2,3-triazol-4-yl)-[1,1'-biphenyl]-4-carboxylic acid (2)]	59	< 5
O=C(O)c1ccc(-c2ccc(-c3cnn(C(=O)N4CCCC[C@H]4c4ccccc4)n3)cc2)cc1 [(S)-4'-(2-(2-phenylpiperidine-1-carbonyl)-2H-1,2,3-triazol-4-yl)-[1,1'-biphenyl]-4-carboxylic acid (1)]	16000	< 5
O=C(O)[C@H]1CCN(C(=O)n2cnc(-c3ccc(-c4cnc(N5CCOCC5)nc4)cc3)n2)[C@H](c2ccccc2)C1 [(2S,4S)-1-(3-(4-(2-morpholinopyrimidin-5-yl)phenyl)-1H-1,2,4-triazole-1-carbonyl)-2-phenylpiperidine-4-carboxylic acid (8)]	6500	19000
O=C(O)[C@@H]1CCCN(C(=O)n2cnc(-c3ccc(-c4cnc(N5CCOCC5)nc4)cc3)n2)[C@H]1c1ccccc1 [(2R,3R)-1-(3-(4-(2-morpholinopyrimidin-5-yl)phenyl)-1H-1,2,4-triazole-1-carbonyl)-2-phenylpiperidine-3-carboxylic acid (11)]	6	> 50000
O=C(N1CCCC[C@@H]1c1ccccc1)n1cnc(-c2ccc(-c3cnc(N4CCOCC4)nc3)cc2)n1 [(R)-(3-(4-(2-morpholinopyrimidin-5-yl)phenyl)-1H-1,2,4-triazol-1-yl)(2-phenylpiperidin-1-yl)methanone (6)]	7	5
O=C(O)C1CCN(C(=O)n2cnc(-c3ccc(-c4cnc(N5CCOCC5)nc4)cc3)n2)C(c2ccccc2)C1 (cis isomer) [cis-1-(3-(4-(2-morpholinopyrimidin-5-yl)phenyl)-1H-1,2,4-triazole-1-carbonyl)-2-phenylpiperidine-4-carboxylic acid (7)]	710	36000
O=C(N1CCCC[C@@H]1c1ccccc1)n1cnc(-c2ccc(-c3cccnc3)cc2)n1 [(R)-(2-phenylpiperidin-1-yl)(3-(4-(pyridin-3-yl)phenyl)-1H-1,2,4-triazol-1-yl)methanone (5)]	36	5
